GI50 and TGI data for 19 molecules are collected here from PubChem BioAssay (NCI).

Test in all cases: DTP human tumour cell line panel, 48 h
For test [1], the system named is ACHN renal.
Test [2] relates to CAKI-1 renal.
Test [3] relates to HL-60(TB) leukemia.
In test [4] the test system is LOX IMVI melanoma.
Test [5] deals with NCI-H23 lung.
The test system of test [6] is NCI-H460 lung.
Test [7] concerns OVCAR-3 ovarian.
Test [8] relates to SF-295 CNS.
For test [9], the system named is SK-MEL-28 melanoma.
Test [10] relates to SR leukemia.

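Five concentrations, 48 hours, 96-well plates. GI50 = concentration required for 50% inhibition of growth. TGI marks complete inhibition of growth.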

In general, GI50 refers to the concentration at which growth is held to half of that of the control. Broadly, the TGI is the concentration at which net growth stops. The low end stands for greater sensitivity of the cells, the high end for lower sensitivity of the cells.

With `Cc1ccc2nc(-c3ccc(N(C)C)c(Br)c3)cn2c1`, the GI50 was > 100 µM in test [1]; > 100 µM in test [2]; 1.61 µM in test [3]; 35.2 µM in test [4]; > 100 µM in test [5]; 4.18 µM in test [6]. Also, the GI50 in [7] is > 100 µM; in test [8] it was > 100 µM; in test [9], 10.5 µM; in test [10] it was 1.46 µM. Further, the concentration for total growth inhibition (TGI) in test [1], in test [2], in test [3], in [4], in [5] and in [6] was > 100 µM throughout. The TGI in test [7], in test [8], in test [9] and in [10] was > 100 µM throughout.

`CC(=O)OCC(OC(C)=O)C(OC(C)=O)C(OC(C)=O)C(=O)CNn1c(-c2ccccc2Cl)nc2ccccc2c1=O` (configuration not stated): the TGI in test [1], in test [2], in test [3], in [4], in test [5] and in [6] was > 100 µM each time. The concentration for total growth inhibition (TGI) in [7], in [8], in [9] and in [10] was > 100 µM in each case.

For the molecule `Fc1cc2[nH]ncc2c2c3c(c(-c4cn[nH]c4C(F)(F)F)nc12)C1CCC3C1` (configuration not stated), the GI50 in test [1] was 0.532 µM; in test [2], 0.602 µM; in test [3] it was 1.1 µM; in test [4], 0.818 µM; in [5] it was 1.27 µM; in test [6], 1.15 µM. Also, the GI50 is 1.39 µM in test [7], 1.21 µM in test [8], 0.889 µM in test [9] and 0.645 µM in test [10]. In addition, the concentration for total growth inhibition (TGI) is 3.2 µM in [1]; 3.51 µM in [2]; 2.6 µM in [3]; 3.33 µM in test [4]; 6 µM in [5]; 5.5 µM in [6]. For the same molecule, the total growth inhibition concentration (TGI) was 4.87 µM in test [7], 4.94 µM in test [8], 2.84 µM in test [9] and > 50 µM in test [10].

For the molecule `Cc1ccc(-c2csc(NC(=O)CN3CCN(c4cc5c(cc4F)c(=O)c(C(=O)O)cn5C4CC4)CC3)n2)cc1`, the GI50 in [1] is 2.58 µM; in test [3], 1.47 µM; in test [4], 0.482 µM; in test [5], 0.39 µM; in test [6] it was 0.368 µM; in test [7], 0.457 µM. In addition, the GI50 in test [8] is 1.15 µM; in test [9], 1.94 µM; in [10], 0.645 µM. Moreover, the TGI in test [1] was 14.3 µM; in [3] it was 3.94 µM; in test [4], 29.2 µM; in test [5], 13.3 µM; in [6] it was 17.1 µM; in test [7], 15.7 µM. Moreover, the total growth inhibition concentration (TGI) is 13.9 µM in test [8], > 100 µM in test [9] and 6.87 µM in test [10].

Turning to `Cc1cc2c(cc1Cl)SC1=NN(C)C(N(C)C)N1S2(=O)=O` (configuration not stated), the GI50 in [1], in test [2], in test [3], in test [4], in test [5] and in test [6] was > 100 µM in each case. The GI50 in test [7], in [8], in test [9] and in test [10] was > 100 µM each time. Moreover, the TGI in test [1], in test [2], in test [3], in [4], in test [5] and in test [6] was > 100 µM each time. The TGI in test [7], in test [8], in [9] and in [10] was > 100 µM each time.

Take `COC(=O)c1ccccc1NC(=O)C(=O)NNC(=O)c1ccncc1`: the TGI in test [1], in [2], in [3], in [4], in test [5] and in test [6] was > 100 µM each time. The total growth inhibition concentration (TGI) in [7], in test [8], in test [9] and in [10] was > 100 µM in each case.

Take `CCOc1cc(/C=N\Nc2nnc(C)n2N)c(C)cc1N(CCCl)CCCl`: the GI50 is 0.805 µM in test [1]; 1.31 µM in test [2]; 0.351 µM in test [3]; 0.349 µM in [4]; 0.8 µM in test [5]; 0.843 µM in test [6]. The GI50 is 0.737 µM in [7], 1.13 µM in test [8], 1.97 µM in test [9] and 0.558 µM in test [10]. The TGI is > 100 µM in test [1]; 9.44 µM in test [2]; 3.82 µM in [3]; 11.2 µM in [4]; 9.49 µM in [5]; 31.5 µM in test [6]. The concentration for total growth inhibition (TGI) in [7] came out at 38.6 µM; in test [8] it was 6.23 µM; in [9], 53.8 µM; in [10], 23.5 µM.

For `COc1cc(C(=O)Nc2cc3c(cc2Oc2cc(C)cc(C)c2)C(=O)N(C)[C@@H](CC(=O)N(C)O)C(=O)N3)c(Br)c(OC)c1OC`, the GI50 in test [1] is 0.0111 µM; in test [2], 0.496 µM; in [3], < 0.00333 µM; in [4], < 0.00333 µM; in [5], < 0.00333 µM; in test [6], < 0.00333 µM. Moreover, the GI50 in test [7], in test [8], in test [9] and in test [10] was < 0.00333 µM in each case. In addition, the concentration for total growth inhibition (TGI) is 0.374 µM in [1]; 2.58 µM in test [2]; < 0.00333 µM in test [3]; < 0.00333 µM in [4]; 0.00543 µM in test [5]; 0.00425 µM in test [6]. Besides, the TGI was < 0.00333 µM in test [7], 0.00898 µM in test [8], < 0.00333 µM in [9] and 0.00904 µM in [10].

As for `COc1cc2c(=O)n(CCN)c3c4cc5c(cc4ccc3c2cc1OC)OCO5`, the GI50 in test [1] was 0.363 µM; in test [2], 0.382 µM; in test [3] it was 1.24 µM; in test [4], 0.362 µM; in test [5], 0.683 µM; in [6], 0.236 µM. Besides, the GI50 was 0.919 µM in [7], 0.306 µM in test [8], 2.09 µM in [9] and 0.0907 µM in test [10]. Also, the total growth inhibition concentration (TGI) is 1.52 µM in test [1]; 5.94 µM in [2]; 3.53 µM in [3]; 1.78 µM in [4]; 2.51 µM in test [5]; 1.25 µM in [6]. The total growth inhibition concentration (TGI) in test [7] is 2.26 µM; in test [8], 4.08 µM; in [9] it was 6.17 µM; in test [10] it was 1.03 µM.

Turning to `COC(=O)C(CC(=O)Nc1ccc(C)cc1)C(=O)C(=O)Nc1ccccc1C(C)C` (configuration not stated), the total growth inhibition concentration (TGI) in test [1], in [2], in test [3], in [4], in [5] and in test [6] was > 100 µM throughout. Moreover, the total growth inhibition concentration (TGI) in test [7], in [8], in test [9] and in test [10] was > 100 µM throughout.

As for `CCn1c(-c2nonc2N)nc2c(C#CC(C)(C)O)nc(OCCNC)cc21`, the GI50 in test [1] is 8.29 µM; in test [2] it was > 18.2 µM; in test [3], 7.78 µM; in test [4], 6.88 µM; in [5], 8.81 µM; in [6], 7.83 µM. Moreover, the GI50 in test [7] was 6.16 µM; in test [8], 6.66 µM; in test [9], 8.49 µM; in [10], 9.56 µM. Moreover, the TGI is > 25 µM in test [1]; > 25 µM in [2]; 18.2 µM in test [3]; > 25 µM in [4]; > 25 µM in test [5]; > 25 µM in test [6]. Moreover, the TGI in test [7] is 17.7 µM; in [8], > 22.6 µM; in test [9] it was > 25 µM; in test [10] it was > 21.8 µM.

As to `COc1cc(-c2cn(-c3ccc(Cl)c(Cl)c3)c(=O)n2C(C)=O)cc(OC)c1OC`, the GI50 in test [1] is 10.4 µM; in test [2], 11.5 µM; in test [3], 14.2 µM; in test [4], 13.7 µM; in test [6] it was 10.5 µM; in test [7], 14.9 µM. The GI50 in [8] is 1.53 µM; in [9], 11.6 µM; in test [10] it was 14.8 µM. The TGI in test [1] was found to be 30.5 µM; in test [2], 33.5 µM; in [3], 33.9 µM; in test [4], 28 µM; in test [6], 25.1 µM; in test [7], 38.1 µM. The values for the TGI in test [8], in test [9] and in test [10] were 5.79 µM, 29.6 µM and 34.5 µM, respectively.

For `O=C(N/N=C(/CCN1CCCC1)CC(c1ccccc1)c1c(O)c2ccccc2oc1=O)c1ccncc1` (configuration not stated), the total growth inhibition concentration (TGI) in [1] is > 100 µM; in [2] it was > 100 µM; in test [3], 84.8 µM; in test [4], > 100 µM; in [5], > 100 µM; in test [6], > 100 µM. Further, the total growth inhibition concentration (TGI) was > 100 µM in test [7], > 100 µM in [8] and 48.6 µM in test [10].

`Cc1c(C(=O)NCCN2CCOCC2)cn2ncnc(Oc3ccc(NC(=O)Nc4ccc(Cl)c(C(F)(F)F)c4)cc3)c12`: the GI50 in [2] was 1.46 µM; in test [3], 0.417 µM; in test [4], 0.601 µM; in test [6], 1.16 µM; in test [8] it was 1.77 µM; in [9] it was 1.06 µM. The GI50 in [10] was 0.339 µM. Further, the total growth inhibition concentration (TGI) came out at 2.92 µM in test [2]; 1.7 µM in [3]; 1.94 µM in test [4]; 2.8 µM in [6]; 3.34 µM in [8]; 2.39 µM in test [9]. For the same molecule, in test [10], the TGI stood at 2.26 µM.

For the molecule `OC1(c2ccccc2)OC(C#Cc2ccccc2)(c2ccccc2)c2ccccc21` (configuration not stated), the TGI in test [2] is 13.9 µM; in [3], > 100 µM; in [4], 11.2 µM; in test [5] it was 11.3 µM; in test [6], 17.7 µM; in test [7], 5.93 µM. The concentration for total growth inhibition (TGI) in test [8] was 18 µM; in [10] it was 9.39 µM.

With `COc1ccc(C2=NN(C=O)C(c3cccc(Nc4ccnc5cc(Cl)ccc45)c3)C2)cc1` (configuration not stated), the GI50 was 4.59 µM in test [1]; 2.03 µM in [3]; 2.52 µM in test [4]; 1.87 µM in test [5]; 2.73 µM in test [6]; 1.97 µM in test [7]. Moreover, the GI50 was 1.24 µM in test [8], 8.12 µM in test [9] and 0.583 µM in test [10]. In addition, the TGI in test [1] was 62.7 µM; in test [3], 4.91 µM; in test [4], 12.5 µM; in [5], > 100 µM; in test [6] it was 15.7 µM; in test [7], 12.5 µM. Moreover, the total growth inhibition concentration (TGI) is 23 µM in test [8], 25.3 µM in test [9] and 5.23 µM in test [10].

On to `CN(C)/N=C(/c1nc2ccc(Cl)cc2[nH]c1=O)C(O)c1ccc(C(O)/C(=N\N(C)C)c2nc3ccc(Cl)cc3[nH]c2=O)cc1` (configuration not stated), for which the TGI in [1], in test [2], in test [3], in test [5], in [6] and in test [7] was > 100 µM each time. The total growth inhibition concentration (TGI) in [8], in test [9] and in test [10] was > 100 µM in each case.

For `NCCCCNc1ccc2c(=O)[nH][nH]c(=O)c2c1`, the concentration for total growth inhibition (TGI) in test [1], in test [2], in [3], in test [4], in [5] and in test [7] was > 100 µM throughout. Moreover, the TGI in [8], in test [9] and in test [10] was > 100 µM each time.

With `COC1C2C=CC(C2)[C@H]1[N+](=O)[O-]` (some centres not stated), the TGI in test [1], in [2], in test [3], in [4], in test [5] and in test [6] was > 100 µM throughout. In addition, the concentration for total growth inhibition (TGI) in test [7], in test [8] and in test [10] was > 100 µM each time.
